Source: patent US12522594B2, “2-heteroaryl-3-oxo-2,3-dihydropyridazine-4-carboxamides for the treatment of cancer” (Deutsches Krebsforschungszentrum, priority 2017, dated 2026)

Assays:
AHR [1] = molecular target: T1, AHR (Homo sapiens, UniProt P35869); assay: In vitro assay 2: agonism in human cell line (transactivation assay, U87 cells, DRE firefly luciferase reporter); format: cell-based; parameters: host or cells: U87 glioblastoma cells, stably transfected with DRE firefly luciferase and renilla reporter constructs; conditions: no kynurenic acid, 20 hours, read-out: Assay 2: AHR-luc Hum Agonism IC50
T1 sequence (P35869 11-848): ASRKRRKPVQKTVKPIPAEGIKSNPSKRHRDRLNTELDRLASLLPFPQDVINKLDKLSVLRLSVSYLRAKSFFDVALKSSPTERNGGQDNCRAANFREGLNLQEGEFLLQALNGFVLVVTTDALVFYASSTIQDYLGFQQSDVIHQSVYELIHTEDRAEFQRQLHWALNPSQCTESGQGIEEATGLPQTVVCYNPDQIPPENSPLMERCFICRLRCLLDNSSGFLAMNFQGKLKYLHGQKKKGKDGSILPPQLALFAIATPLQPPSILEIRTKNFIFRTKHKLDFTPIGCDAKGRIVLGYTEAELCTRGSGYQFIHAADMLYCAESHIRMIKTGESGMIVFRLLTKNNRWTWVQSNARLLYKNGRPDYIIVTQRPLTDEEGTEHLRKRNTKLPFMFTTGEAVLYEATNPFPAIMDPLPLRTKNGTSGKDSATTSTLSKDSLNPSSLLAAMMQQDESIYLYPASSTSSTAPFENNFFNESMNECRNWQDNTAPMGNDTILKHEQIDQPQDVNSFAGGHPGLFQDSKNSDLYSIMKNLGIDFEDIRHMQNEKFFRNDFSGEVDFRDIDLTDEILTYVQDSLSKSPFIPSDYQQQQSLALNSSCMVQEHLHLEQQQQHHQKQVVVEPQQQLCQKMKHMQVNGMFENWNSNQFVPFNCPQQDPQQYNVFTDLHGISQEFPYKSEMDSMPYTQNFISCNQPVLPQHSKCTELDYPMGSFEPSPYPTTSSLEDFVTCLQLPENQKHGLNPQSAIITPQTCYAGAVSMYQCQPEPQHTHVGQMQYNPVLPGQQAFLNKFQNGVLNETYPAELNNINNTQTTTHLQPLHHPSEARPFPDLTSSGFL
How it was run: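 Agonist readout: DRE firefly luciferase, with constitutive renilla reporter, in stably transfected U87 cells expressing AHR endogenously. Normalization used positive control (300 uM kynurenic acid) and negative control.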

AHR [2] = molecular target: T1, AHR; assay: In vitro assay 1: antagonism in human cell line (transactivation assay, U87 cells prestimulated with kynurenic acid, DRE firefly luciferase reporter); format: cell-based; parameters: host or cells: U87 glioblastoma cells, stably transfected with DRE firefly luciferase and renilla reporter constructs; conditions: 150 uM kynurenic acid, 20 hours, read-out: Assay 1: AHR-luc Hum Antagonism IC50
How it was run: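 Antagonism measured after kynurenic acid prestimulation in U87 cells that express AHR endogenously and stably harbor a firefly luciferase gene under DRE control plus a constitutive renilla construct. Positive and negative controls served for normalization.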

SMILES	IC50 (AHR [1]) [nM]	IC50 (AHR [2]) [nM]
Cn1cc(-n2nc(-c3ccc(Cl)cc3)cc(C(=O)N[C@H]3CCC[C@@H]3O)c2=O)cn1 (relative stereo) [Example 51, 6-(4-Chlorophenyl)-N-[(trans)-2-hydroxycyclopentyl]-2-(1-methyl-1H-pyrazol-4-yl)-3-oxo-2,3-dihydropyridazine-4-carboxamide]	> 20000	9.54
Cn1cc(-n2nc(-c3ccc(Cl)cc3)cc(C(=O)NC(CO)C(F)(F)F)c2=O)cn1 (racemic) [Example 33, 6-(4-Chlorophenyl)-2-(1-methyl-1H-pyrazol-4-yl)-3-oxo-N-[(2RS)-1,1,1-trifluoro-3-hydroxypropan-2-yl]-2,3-dihydropyridazine-4-carboxamide]	> 20000	2.66
CC(C)(O)CNC(=O)c1cc(-c2ccc(Cl)cc2)nn(-c2cnoc2)c1=O [Example 269, 6-(4-Chlorophenyl)-N-(2-hydroxy-2-methylpropyl)-2-(1,2-oxazol-4-yl)-3-oxo-2,3-dihydropyridazine-4-carboxamide]	> 20000	61.7
O=C(N[C@H](CO)C(F)(F)F)c1cc(-c2ccc(C(F)(F)F)cc2)nn(-c2cnn(C(F)F)c2)c1=O [Example 214, 2-[1-(Difluoromethyl)-1H-pyrazol-4-yl]-3-oxo-N-[(2R)-1,1,1-trifluoro-3-hydroxypropan-2-yl]-6-[4-(trifluoromethyl)phenyl]-2,3-dihydropyridazine-4-carboxamide]	> 20000	2.07
O=C(N[C@H]1CCC[C@@H]1O)c1cc(-c2ccc(Cl)cc2)nn(-c2ccnnc2)c1=O [Example 174, 3-(4-Chlorophenyl)-N-[(1S,2S)-2-hydroxycyclopentyl]-6-oxo-6H-1,4′-bipyridazine-5-carboxamide]	> 20000	61.5

Results, then the compound that gave them:

IC50 (AHR [1]) [nM]	IC50 (AHR [2]) [nM]	SMILES
> 20000	10.3	O=C(NCC(O)C(F)(F)F)c1cc(-c2ccc(OC(F)(F)F)cc2)nn(-c2cccnc2)c1=O (stereo not shown) [Example 146, 3-Oxo-2-(pyridin-3-yl)-N-[3,3,3-trifluoro-2-hydroxypropyl]-6-[4-(trifluoromethoxy)phenyl]-2,3-dihydropyridazine-4-carboxamide]
> 20000	4.23	CC(C)(O)C(NC(=O)c1cc(-c2ccc(OC(F)(F)F)cc2)nn(-c2cccnc2)c1=O)C(F)(F)F (single isomer, unassigned; enantiomer 2) [Example 137, 3-Oxo-2-(pyridin-3-yl)-N-[1,1,1-trifluoro-3-hydroxy-3-methylbutan-2-yl]-6-[4-(trifluoromethoxy)phenyl]-2,3-dihydropyridazine-4-carboxamide, Enantiomer 2]
> 20000	36	COC[C@@H](CO)NC(=O)c1cc(-c2ccc(Cl)cc2)nn(-c2cncc(F)c2)c1=O [Example 85, 6-(4-Chlorophenyl)-2-(5-fluoropyridin-3-yl)-N-[(2R)-1-hydroxy-3-methoxypropan-2-yl]-3-oxo-2,3-dihydropyridazine-4-carboxamide]
> 20000	3.64	O=C(N[C@H]1CCCC[C@H]1O)c1cc(-c2ccc(Cl)cc2)nn(-c2cncc(F)c2)c1=O [Example 124, 6-(4-Chlorophenyl)-2-(5-fluoropyridin-3-yl)-N-[(1S,2R)-2-hydroxycyclohexyl]-3-oxo-2,3-dihydropyridazine-4-carboxamide]
> 20000	3.69	CC(NC(=O)c1cc(-c2ccc(Cl)cc2)nn(-c2cccnc2)c1=O)C(O)C(F)(F)F (single isomer, unassigned) [Example 298, 6-(4-Chlorophenyl)-3-oxo-2-(pyridin-3-yl)-N-(4,4,4-trifluoro-3-hydroxybutan-2-yl)-2,3-dihydropyridazine-4-carboxamide]
> 20000	21.8	Cn1cc(-n2nc(-c3ccc(C(F)F)cc3)cc(C(=O)N[C@@H]3COC[C@@H]3O)c2=O)cn1 (relative stereo) [Example 60, 6-[4-(Difluoromethyl)phenyl]-N-[(cis)-4-hydroxytetrahydrofuran-3-yl]-2-(1-methyl-1H-pyrazol-4-yl)-3-oxo-2,3-dihydropyridazine-4-carboxamide]
